Here are results for 23 compounds from ChEMBL document CHEMBL4831532.

In series [1] the test system is SARS-CoV-2. As to the kind of experiment: microbe, parasite or virus in culture. Conditions: Severe acute respiratory syndrome coronavirus 2, JPN/TY/WK-251, Vero C1008, 72 h.
A short description of series [2]: Inhibition of SARS-CoV-2 3CL protease using HiyteFluor-488ESATL-QSGLRKAK-(QXL)-NH2 fluorogenic peptide as substrate preincubated for 15 mins followed by substrate addition and measured after 30 mins by FRET assay. Further details: species or system Severe acute respiratory syndrome coronavirus 2.
The nature of series [3]: Binding affinity to SARS-CoV-2 3CL protease. Further details: species or system Severe acute respiratory syndrome coronavirus 2.
In series [4] the test system is SARS-CoV-2. It is filed as functional.
Series [5] has as its system SARS-CoV-2. It is filed as functional, organism-based. Conditions: Severe acute respiratory syndrome coronavirus 2; JPN/TY/WK-251; Vero E6; dose 10.0 µM, time 3.0 day.
In series [6] the test system is SARS-CoV-2. It is filed as functional, Severe acute respiratory syndrome coronavirus 2, JPN/TY/WK-251, Vero E6. The following applies: dose 1-100 µM; time 72 hrs; at 1 to 100 µM.
Another series has as its system Vero C1008. Nature of the series: Cytotoxicity against African green monkey Vero E6 cells incubated for 3 days. The class given is cell-based. The following applies: chlorocebus sabaeus, vero c1008, 72 h; time 3 day.

pEC50, pIC50, pKi: −log10 of the molar value. Active and inactive are the calls of the source. The rule behind the calls is not given here.

Usually pEC50 stands for the negative decadic logarithm of the EC50, by convention in mol/L. The pIC50 is the negative decadic logarithm of the IC50, by convention in mol/L. The pKi is the Ki on a negative log10 scale, so that one unit is a factor of ten. As a reminder, the CC50 is the concentration at which the toxic effect on the cells reaches its halfway point.

For the compound `O=C(Nc1cccc(Cl)c1)c1cccc2[nH]ccc12`, in the series with SARS-CoV-2 [1], the pEC50 was under 4.00. The same compound showed a pIC50 in series [2] of 4.00.
Compound `Cc1ncc(OC(=O)c2cccc3[nH]ccc23)cc1Cl` gave a pEC50 in the series on SARS-CoV-2 [1] of 4.52.
Compound `O=C(Nc1cncc(Cl)c1)c1cccc2[nH]ccc12` had a pEC50 with SARS-CoV-2 [1] of under 4.00.
Same read-out and setting: under `Cc1ccc2[nH]ccc2c1C(=O)Oc1cncc(Cl)c1` stands under 4.00.
For the compound `COc1cccc2[nH]c(C(=O)N[C@@H](CC(C)C)C(=O)N[C@@H](C[C@@H]3CCNC3=O)C(=O)c3nc4ccccc4s3)cc12`, in series [3], the pKi is 7.75.
For `Cc1ncc(Cl)cc1OC(=O)c1cccc2[nH]ccc12`, the pEC50 in the series on SARS-CoV-2 [1] was under 4.00. The pIC50 in series [2] was under 4.00.
`Cc1c(Cl)cncc1OC(=O)c1cccc2[nH]ccc12`: the pEC50 in the series on SARS-CoV-2 [1] is 4.71.
The compound `Cc1nc2c(C(=O)Oc3cncc(Cl)c3)cccc2[nH]1` had a pEC50 in the series with SARS-CoV-2 [1] of 4.24.
Still for that read-out and setting: under `Cc1c[nH]c2cccc(C(=O)Oc3cncc(Cl)c3)c12` stands 4.25.
Still for that read-out and setting: under `O=C(Oc1cncc(Cl)c1)c1ccc2c(ccn2S(=O)(=O)c2cccc([N+](=O)[O-])c2)c1` stands 4.16; under `O=C(Oc1cncc(Cl)c1)c1cccc2c1OCCN2`, under 4.00; under `Cc1cc(C(=O)Oc2cncc(Cl)c2)c2cc[nH]c2c1`, 5.51.
As for `CCC(CC)COC(=O)[C@H](C)N[P@](=O)(OC[C@H]1O[C@@](C#N)(c2ccc3c(N)ncnn23)[C@H](O)[C@@H]1O)Oc1ccccc1`, the Activity result with SARS-CoV-2 [4] (Severe acute respiratory syndrome coronavirus 2, JPN/TY/WK-251, Vero E6, dose 100.0 µM, time 3.0 day) was “Active”; with SARS-CoV-2 [5], “Active”. Further, the Activity with SARS-CoV-2 [6] turned out to be 100%.
Turning to `O=C(Oc1cncc(Cl)c1)c1cccc2ncoc12`, the pEC50 in the series with SARS-CoV-2 [1] is under 4.00.
The same measure, in the same setting: for `O=C(Oc1cncc(Cl)c1)c1cc(F)cc2[nH]ccc12` the value was 4.85; for `O=C(Oc1cncc(Cl)c1)c1cccc2[nH]cnc12`, under 4.00.
With `O=C(Oc1cncc(Cl)c1)c1cccc2[nH]ccc12`, the Activity is recorded as 100% in the series with SARS-CoV-2 [4] (dose 100 µM, time 3 day) and 100% in the series on SARS-CoV-2 [6]. For the same compound, the result with SARS-CoV-2 [5] was Active. This compound also came in with a CC50 in the series with Vero C1008 of over 100 µM.
`C=CCc1cn(CC=C)c2cccc(C(=O)Oc3cncc(Cl)c3)c12` gave a pEC50 in the series on SARS-CoV-2 [1] of 4.94.
Same read-out and setting: under `COc1cccc2[nH]c(C(=O)Oc3cncc(Cl)c3)cc12` stands 5.09; under `O=C(Oc1cncc(Cl)c1)c1ccc2[nH]ccc2c1`, 4.36; under `C=CCn1ccc2c(C(=O)Oc3cncc(Cl)c3)cccc21`, 4.82.
Same read-out and setting: under `Cc1ncc(OC(=O)c2cccc3[nH]cnc23)cc1Cl` stands 4.24.
In the series with SARS-CoV-2 [4] (dose 100 µM, time 3 day), `O=C(Oc1cncc(Cl)c1)c1cccc2c1CCN2` had an Activity of 100%. In the series with SARS-CoV-2 [1], the pEC50 was 4.82. For the same compound, in the series with SARS-CoV-2 [5], the outcome was Active. The pIC50 in series [2] is 6.49.
